Measurements published in US20260125376A1, “IRREVERSIBLE INACTIVATORS TARGETING ARAF/MEK COMPLEXES” (Dana-Farber Cancer Institute, Inc., priority 2022, published 2026).

How the values were obtained:
ARAF/MEK protein complex = ARAF/MEK protein complex (Homo sapiens, UniProt P10398+Q02750); assay: Mass spectrometry-based assay for covalent labeling of ARAF; format: binding; conditions: ARAF/MEK protein complex incubated at room temperature for 2 hours with inhibitor at concentration ratio 1:10; LC-MS of denatured protein
Experimental: Covalent labeling of ARAF by compounds of the invention was measured using a mass spectrometry-based assay. The ARAF/MEK protein complex was incubated at room temperature for 2 hours with desired inhibitors at a concentration ratio of 1:10. Following incubation, proteins were denatured in 8 M urea. Formic acid was added to a final 1% and desalted over C4 resin prior to LCMS analysis. Denatured proteins (10 μg per sample) were analyzed by LC-MS via a U3000 RSLC coupled to an Orbitrap Eclipse mass spectrometer (Thermo Scientific, Waltham, MA, USA). Proteins were eluted off a ES811A (Thermo Scientific, Waltham, MA, USA) 15-cm C4 column with a 5-50% gradient of MeCN in 1% FA. MS scans (range=600-2000 m/z) were obtained in the orbitrap at 120,000 resolution with 4 microscans. The Xtract function in Freestyle software (Thermo Scientific, Waltham, MA, USA) was used to deconvolute charge states averaged across the elution window. Fractional labeling of ARAF was measured by quantitating the unlabeled ARAF and ARAF shifted by the mass expected for formation of a covalent adduct of ARAF with the compound of interest.

[1] = biological target: T1, ARAF/14-3-3 chimera (residues 274-606 of human ARAF fused to human 14-3-3 epsilon) (Homo sapiens, UniProt P10398+Q02750, D190N/G300S/Y301D/Y302D); assay: TR-FRET-based kinase assay: inhibition of phosphorylation of MEK1 by ARAF; format: biochemical; conditions: 250 nM MEK1(D190N), 75 nM ARAF/14-3-3 chimera, 30 minutes incubation with inhibitor, 200 μM ATP, 1 hour, HTRF
T1 construct: residues 274-606 of human ARAF, including the kinase domain and complete C-terminal region; made in house; host or cells: Sf9 insect cells (baculovirus)
Experimental: The ability of compounds of the invention to inhibit phosphorylation of MEK by ARAF was measured in a TR-FRET-based kinase assay using purified ARAF and MEK proteins. An active, chimeric ARAF protein was employed for this study. This ARAF protein included residues 274-606 of human ARAF, including the kinase domain and complete C-terminal region, fused to human 14-3-3 epsilon (ARAF/14-3-3 chimera). Amino acids corresponding to residues […] of human ARAF (with the sequence Ser-Gly-Tyr-Tyr) were mutated to Ser-Ser-Asp-Asp in this ARAF/14-3-3 chimera. […] In this assay, the ability of compounds of interest to inhibit phosphorylation of MEK1 by ARAF was measured by incubating 250 nM unphosphorylated full-length MEK1(D190N) with 75 nM ARAF/14-3-3 chimera and inhibitor of interest at a series of 12 concentrations (from 10 μM to 1.3 nM) for 30 minutes in reaction buffer (50 mM HEPES pH 7.0, 5 mM MgCl2, 1 mM MnCl2, 0.01% BSA, 2 mM TCEP, 0.1 mM NaVO4) at room temperature. Reactions were initiated by addition of 200 μM ATP and allowed to proceed for 1 hour. Reactions were quenched using detection buffer from HTRF-KinEASE kit (Cisbio). Signal was read with a PHERAstar plate reader (excitation=337 nm, emission=620 nm and 665 nm). IC50 values were determined using Graphpad Prism software from the 12 point concentration-response data using a three-parameter dose-response fit with the Hill slope constrained to −1.

ARAF/MEK protein complex, sequence (P10398 whole entry): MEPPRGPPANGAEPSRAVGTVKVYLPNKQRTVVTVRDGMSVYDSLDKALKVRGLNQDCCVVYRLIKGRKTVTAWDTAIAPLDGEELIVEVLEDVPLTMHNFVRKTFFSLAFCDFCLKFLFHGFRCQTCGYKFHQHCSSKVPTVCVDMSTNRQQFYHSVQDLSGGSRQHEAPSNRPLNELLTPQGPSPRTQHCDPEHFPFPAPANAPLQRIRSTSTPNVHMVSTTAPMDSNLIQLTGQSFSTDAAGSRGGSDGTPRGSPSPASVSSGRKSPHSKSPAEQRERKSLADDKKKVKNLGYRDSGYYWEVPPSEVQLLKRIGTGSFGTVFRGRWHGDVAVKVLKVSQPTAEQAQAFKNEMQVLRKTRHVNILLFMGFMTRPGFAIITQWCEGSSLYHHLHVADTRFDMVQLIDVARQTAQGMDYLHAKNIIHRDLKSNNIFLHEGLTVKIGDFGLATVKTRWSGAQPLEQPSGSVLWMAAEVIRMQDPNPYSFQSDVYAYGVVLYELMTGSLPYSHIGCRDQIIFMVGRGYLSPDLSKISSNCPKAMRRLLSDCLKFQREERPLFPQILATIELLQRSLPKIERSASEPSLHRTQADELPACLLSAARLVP
ARAF/MEK protein complex, sequence (Q02750 whole entry): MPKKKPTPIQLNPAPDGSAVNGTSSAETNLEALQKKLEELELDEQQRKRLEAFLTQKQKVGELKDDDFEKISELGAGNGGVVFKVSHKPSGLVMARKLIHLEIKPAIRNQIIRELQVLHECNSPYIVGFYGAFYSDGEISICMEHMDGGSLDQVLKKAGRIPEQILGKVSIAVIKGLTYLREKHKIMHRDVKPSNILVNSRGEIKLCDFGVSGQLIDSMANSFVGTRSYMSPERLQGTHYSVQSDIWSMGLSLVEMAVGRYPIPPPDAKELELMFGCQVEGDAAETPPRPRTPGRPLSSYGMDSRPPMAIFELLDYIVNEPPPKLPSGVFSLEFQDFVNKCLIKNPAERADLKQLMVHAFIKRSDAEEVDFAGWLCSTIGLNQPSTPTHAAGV
T1 sequence (P10398 274-606 G300S/Y301D/Y302D limits assumed): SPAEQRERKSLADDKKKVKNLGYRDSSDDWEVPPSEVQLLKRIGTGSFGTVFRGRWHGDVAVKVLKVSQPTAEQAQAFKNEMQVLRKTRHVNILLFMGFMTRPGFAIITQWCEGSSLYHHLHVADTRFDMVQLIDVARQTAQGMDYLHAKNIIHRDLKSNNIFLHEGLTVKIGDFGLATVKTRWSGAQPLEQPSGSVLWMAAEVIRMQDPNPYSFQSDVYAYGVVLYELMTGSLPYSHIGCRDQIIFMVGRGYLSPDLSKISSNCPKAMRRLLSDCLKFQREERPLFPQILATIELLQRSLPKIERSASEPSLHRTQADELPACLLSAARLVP
T1 sequence (Q02750 whole entry D190N, the tested form may be a part): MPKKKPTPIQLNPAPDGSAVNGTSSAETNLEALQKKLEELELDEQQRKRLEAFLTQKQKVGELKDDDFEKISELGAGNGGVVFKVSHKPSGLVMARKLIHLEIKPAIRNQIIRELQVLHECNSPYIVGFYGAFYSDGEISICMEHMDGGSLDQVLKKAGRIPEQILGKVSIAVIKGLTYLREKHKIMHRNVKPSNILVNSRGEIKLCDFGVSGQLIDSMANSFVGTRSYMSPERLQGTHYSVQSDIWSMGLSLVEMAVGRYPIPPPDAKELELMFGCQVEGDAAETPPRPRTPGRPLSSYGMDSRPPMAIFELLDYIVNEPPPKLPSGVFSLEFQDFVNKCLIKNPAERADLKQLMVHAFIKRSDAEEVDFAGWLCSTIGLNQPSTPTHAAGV

| SMILES | % labeling (covalent labeling of ARAF) (ARAF/MEK protein complex) [%] | IC50 [1] [µM] |
| --- | --- | --- |
| Cc1c(Cc2ccc(NC(=O)CCl)cc2F)c(=O)oc2cc(Oc3ncccn3)ccc12 [Example 2, 2-Chloro-N-(3-fluoro-4-((4-methyl-2-oxo-7-(pyrimidin-2-yloxy)-2H-chromen-3-yl)methyl)phenyl)acetamide] | 50 |  |
| C=CC(=O)Nc1cccc(Cc2c(C)c3ccc(Oc4ncccn4)cc3oc2=O)c1F [Example 3, N-(2-Fluoro-3-((4-methyl-2-oxo-7-(pyrimidin-2-yloxy)-2H-chromen-3-yl)methyl)phenyl)acrylamide] | 85 | 0.13 |
| Cc1c(Cc2cccc(NC(=O)CCl)c2F)c(=O)oc2cc(Oc3ncccn3)ccc12 [Example 4, 2-Chloro-N-(2-fluoro-3-((4-methyl-2-oxo-7-(pyrimidin-2-yloxy)-2H-chromen-3-yl)methyl)phenyl)acetamide] | 100 | 0.06 |
| C=CC(=O)Nc1ccc(CNC(=O)c2ccc(F)c(F)c2Nc2ccc(I)cc2F)cc1 [Example 5, N-(4-Acrylamidobenzyl)-3,4-difluoro-2-((2-fluoro-4-iodophenyl)amino)benzamide] | 10 |  |
| O=C(CCl)Nc1ccc(CNC(=O)c2ccc(F)c(F)c2Nc2ccc(I)cc2F)cc1 [Example 6, N-(4-(2-Chloroacetamido)benzyl)-3,4-difluoro-2-((2-fluoro-4-iodophenyl)amino)benzamide] | 40 |  |
| C=CC(=O)Nc1ccc(CNC(=O)c2cc3c(ncn3C)c(F)c2Nc2ccc(Br)cc2Cl)cc1 [Example 7, N-(4-Acrylamidobenzyl)-5-((4-bromo-2-chlorophenyl)amino)-4-fluoro-1-methyl-1H-benzo[d]imidazole-6-carboxamide] | 0 |  |
| Cn1cnc2c(F)c(Nc3ccc(Br)cc3Cl)c(C(=O)NCc3ccc(NC(=O)CCl)cc3)cc21 [Example 8, 5-((4-Bromo-2-chlorophenyl)amino)-N-(4-(2-chloroacetamido)benzyl)-4-fluoro-1-methyl-1H-benzo[d]imidazole-6-carboxamide] | 40 |  |
| C=CC(=O)Nc1ccc(Cn2cnc3c(F)c(Nc4ccc(Br)cc4Cl)c(C(=O)OC)cc32)cc1 [Example 9, Methyl 1-(4-acrylamidobenzyl)-5-((4-bromo-2-chlorophenyl)amino)-4-fluoro-1H-benzo[d]imidazole-6-carboxylate] | 0 |  |
| COC(=O)c1cc2c(ncn2Cc2ccc(NC(=O)CCl)cc2)c(F)c1Nc1ccc(Br)cc1Cl [Example 10, Methyl 5-((4-bromo-2-chlorophenyl)amino)-1-(4-(2-chloroacetamido)benzyl)-4-fluoro-1H-benzo[d]imidazole-6-carboxylate] | 75 |  |
| Cc1c(=O)n(C)c(Nc2ccc(I)cc2F)c2c(=O)n(C3CC3)c(=O)n(-c3cccc(NC(=O)CCl)c3)c12 [Example 11, 2-Chloro-N-(3-(3-cyclopropyl-5-((2-fluoro-4-iodophenyl)amino)-6,8-dimethyl-2,4,7-trioxo-3,4,6,7-tetrahydropyrido[4,3-d]pyrimidin-1(2H)-yl)phenyl)acetamide] | 100 | 0.49 |
| C=C(F)C(=O)Nc1cccc(-n2c(=O)n(C3CC3)c(=O)c3c(Nc4ccc(I)cc4F)n(C)c(=O)c(C)c32)c1 [Example 12, N-(3-(3-Cyclopropyl-5-((2-fluoro-4-iodophenyl)amino)-6,8-dimethyl-2,4,7-trioxo-3,4,6,7-tetrahydropyrido[4,3-d]pyrimidin-1(2H)-yl)phenyl)-2-fluoroacrylamide] | 100 | 0.21 |
